Results published in patent US20090317457A1, “ANTI-INFLAMMATORY AND WOUND HEALING EFFECTS OF LYMPHOID THYMOSIN B-4” (Yale University, priority 2002, published 2009).
Several values for one entry are separate records, joined by “and”; a condition that tells them apart may be missing. Identical values can stand only once.

What was measured:
[1] = tested on: DNFB-induced allergic contact dermatitis of ear skin; experiment: DNFB allergic contact dermatitis (ACD) ear swelling assay; type: in vivo, FVB mice; settings: for ear thickness: unit not given
Description: Experimental groups of 8-10 female FVB mice, 8-10 weeks of age, were housed in temperature controlled rooms and given food and water ad libitum. Observations and measurements were made by an investigator blinded to the experimental group. Mice were sensitized on day 0 by epicutaneous application to razor-shaved abdominal skin of 25 μl of 0.5% DNFB in a mixture of acetone:olive oil (4:1). Before the challenge with DNFB, mice were injected (i) intraperitoneally with 100 μl of 3.50×10^−5 M thymosin peptide solution (30 minutes before DNFB) and (ii) intradermally with 40 μl of 8.75×10^−5 M peptide solution in both ears (1 min prior to DNFB challenge). On day 5, after measuring baseline ear thickness with an engineer's micrometer, mice were challenged by applying 10 μl of 0.2% DNFB in acetone:olive oil to each side of each ear. Ears were re-measured 6 h., 24 h., and 48 h. after challenge, and data expressed as the response above baseline (i.e., ear thickness 24 h. after challenge minus ear thickness immediately prior to challenge)±1 standard error of the mean (S.E.). For each mouse, increases in right and left ear thickness were averaged. The experiment was repeated twice. Statistics. Groups were compared for differences in the meaning using a one-tailed Student's t test; p<0.05 was considered statistically significant.

[2] = tested on: λ-carrageenan induced neutrophil mediated inflammation of the footpad; experiment: λ-carrageenan-induced footpad inflammation (footpad swelling); type: in vivo, BALB/c mice; settings: for Footpad Thickness (+/− SE): oxidised peptide
Description: Experimental groups of 8-10 female BALB/c mice, 8-10 weeks of age, were housed in temperature controlled rooms and given food and water ad libitum. Observations and measurements were made by an investigator blinded to the experimental group. λ-Carrageenan injection. After measuring the baseline thickness of the hind footpads with a spring-loaded engineer's micrometer, mice were injected subcutaneously in both hind paws with 340 μg of λ-carrageenan in 40 μl. 6 h., 24 h., and 48 h. after the injection of λ-carrageenan, footpads were re-measured and swelling calculated by subtracting the baseline from the experimental measurements. For each mouse, increases in right and left footpad thickness were averaged. Thymosin peptides were injected as previously described [reference 8]: (i) intraperitoneally with 100 μl of 3.50×10^−5 M peptide solution, 30 minutes before footpad injection; (ii) intradermally into the footpad with 40 μl of 8.75×10^−5 M peptide solution and λ-carrageenan at time 0, and (iii) intraperitoneally with 100 μl of 3.50×10^−5 M peptide solution, 6 h. after footpad injection. For each group, the mean increase in footpad thickness was calculated, and compared to other groups using a one-tailed Student's t-test. The experiment was repeated four times. Statistics. Groups were compared for differences in the meaning using a one-tailed Student's t test; p<0.05 was considered statistically significant.

[3] = tested on: TPA-induced irritant contact dermatitis of ear skin; experiment: TPA irritant contact dermatitis (ICD) ear swelling assay; type: in vivo, BALB/c and FVB mice; settings: for ear swelling: 6 h, unit not given; for TPA Ear Thickness (+/− SE): increase over baseline
Description: Experimental groups of 8-10 female BALB/c and FVB mice, 8-10 weeks of age, were housed in temperature controlled rooms and given food and water ad libitum. Observations and measurements were made by an investigator blinded to the experimental group.
After measuring the baseline ear thickness, naïve mice were injected intraperitoneally (IP) with either 100 μl of PBS, or 100 μl of 3.50×10^−5 M peptide solution (oxidized mTβ4 (“mTβ4-so”), or oxidized mLTβ4 (“mLTβ4-so”) [n=10 per group]). 30 minutes later, mice were injected intradermally with 40 μl of either PBS or 8.75×10^−5 M solution of the appropriate peptide in both ears. One minute later, 40 nmol TPA (in 10 μl acetone) was applied to the anterior side of each ear. 6 h. and 24 h. after the topical application of TPA, the ears were re-measured, and the increases in ear thickness between baseline and 6 h. and between baseline and 24 h. calculated. For each mouse, increases in right and left ear thickness were averaged.
Statistics. Groups were compared for differences in the meaning using a one-tailed Student's t test; p<0.05 was considered statistically significant.

[4] = tested on: human umbilical vein endothelial cells (HUVEC); experiment: Endothelial scratch wound assay; type: cell-based; settings: for % Closure (+/− SE %): 2.0×10^-7 M peptide, ECGS 200 μg
Text: The endothelial “scratch wound assay” was utilised to test the effects of mUTβ4 and mLTβ4 on the migration of endothelial cells in vitro, as described in […] et al. (1997) Thymosin beta 4 accelerates wound healing. J Invest Dermatol. 1999 September; 113(3):364-8 and Young et al., (1999) Thymosin b 4 sulfoxide is an anti-inflammatory agent generated by monocytes in the presence of glucocorticoids. Nature Medicine. 5:1424-1427. HUVECs were obtained from the Endothelial Cell Culture Core Laboratory of the Yale Skin Diseases Research Core Center (Dr. M. Kluger). Passage 3 was used, and plated at a density of 9.5×10^4 cells per well. Cells were grown to 90% confluence in 24 well plates (Corning/Costar), in M-199 media supplemented with 20% FBS, antibiotics, and endothelial cell growth supplement (ECGS). A scratch was made along the diameter of each well with a sterile blue 1 ml pipette tip (Falcon). Cells were then rinsed in MEM buffer. Thymosin peptide was added to the cells in media lacking ECGS but containing 10 mM thymidine to inhibit cell proliferation. In the experimental groups, HUVECs were given 2.0×10^-7 M peptide solution of mUTb4, or in LTb4. Control groups consisted of saline (negative control) and 200 mg of ECGS (positive control). The plates were incubated at 37° C., fixed in 2% paraformaldehyde, and stained with crystal violet at time points 9 h. and 24 h. The scratch width was measured using a microscope with a 4× objective lens connected to a digital camera and then analyzed using Scion Image 1.62 software. The percent closure of the 9 h. and 24 h. measurements was calculated by dividing by the original wound width at time zero in square pixels. For each group, the mean percent closure was calculated, based on 4 images per well, 4 wells per group.

Substance: N-LLPATMSDKPDMAEIEKFDKSKLKKTE-TQEKNPLPSKETIEQEKQAGES-C (SEQ ID NO:8) (LLPATMSDKPDMAEIEKFDKSKLKKTETQEKNPLPSKETIEQEKQAGES; listed as Homo sapiens) [LTβ4, lymphoid thymosin-β4 polypeptide, un-methionated form, chemically synthesised]
- suppression of ACD ear swelling response relative to PBS ([1]; 6 h): 17%
- ear swelling response compared to mice receiving PBS or UTβ4 (FIG. 4A) ([1]; 6 h, 24 h and 72 h after challenge): significant reduction in ear swelling response
- suppression of ACD ear swelling response relative to PBS ([1]; 24 h): 21%
- suppression of ACD ear swelling response relative to PBS ([1]; 72 h): 24%
- DNFB Ear Thickness (+/− SE) ([1]; Un-Methionated Thymosin Experiment, forty-eight hours after challenge): 15.45 ± 0.91 .01 mm
- DNFB Ear Thickness (+/− SE) ([1]; Un-Methionated Thymosin Experiment, six hours after challenge): 7.83 ± 0.61 .01 mm
- DNFB Ear Thickness (+/− SE) ([1]; Un-Methionated Thymosin Experiment, twenty-four hours after challenge): 18.98 ± 0.74 .01 mm
- thinner ears than uTβ4-so treated mice ([1]; seventy-two hours): 22%
- ear thickness ([1]; seventy-two hours): 15.45±0.91
- thinner ears than uTβ4-so treated mice ([1]; six hours): 21%
- ear thickness ([1]; six hours): 7.83±0.61
- thinner ears than uTβ4-so treated mice ([1]; twenty-four hours): 16%
- ear thickness ([1]; twenty-four hours): 18.98±0.74
- suppression of footpad inflammation relative to PBS ([2]; 6 h): 21%
- footpad swelling compared with mice receiving PBS or UTβ4 (FIG. 2A) ([2]; 24 h): significantly reduced footpad swelling
- suppression of footpad inflammation relative to PBS ([2]; 24 h): 58%
- footpad thickness ([2]; 24 h, unit not given): 0.22±0.03
- suppression of footpad inflammation relative to PBS ([2]; 48 h): 42%
- Footpad Thickness (+/− SE) ([2]; Un-Methionated Thymosin Experiment (A), forty-eight hours after λ-carrageenan): 0.34 ± 0.04 mm
- Footpad Thickness (+/− SE) ([2]; Un-Methionated Thymosin Experiment (A), six hours after λ-carrageenan, increase over baseline): 0.47 ± 0.04 mm
- Footpad Thickness (+/− SE) ([2]; Un-Methionated Thymosin Experiment (A), twenty-four hours after λ-carrageenan): 0.22 ± 0.03 mm

Substance: N-MLLPATMSDKPDMAEIEIFDKSKILITE-TQEKNPLPSKETIEQEKQAGES-C (SEQ ID NO:9) (MLLPATMSDKPDMAEIEKFDKSKLKKTETQEKNPLPSKETIEQEKQAGES; listed as Homo sapiens) [mLTβ4, N-terminal methionated lymphoid thymosin-β4, chemically synthesised]
- suppression of ACD ear swelling response relative to PBS ([1]; 6 h): 37%
- suppression of ACD ear swelling response relative to PBS ([1]; 24 h): 27%
- ear swelling response relative to mice that received PBS or mUTβ4 (FIG. 4B) ([1]; 24 h and 72 h): significant reduction in ear swelling response
- suppression of ACD ear swelling response relative to PBS ([1]; 72 h): 42%
- suppression of footpad inflammation relative to PBS ([2]; 6 h): 50%
- footpad swelling compared with mice receiving PBS or mUTβ4 (FIG. 2B) ([2]; 6 h and 24 h): significantly reduced footpad swelling
- suppression of footpad inflammation relative to PBS ([2]; 24 h): 59%
- suppression of footpad inflammation relative to PBS ([2]; 48 h): 34%
- ear swelling [3]: 18.00±1.58
- suppression of inflammation relative to PBS-treated controls ([3]; 6 h post-application of TPA): 41%
- suppression of inflammation relative to PBS-treated controls ([3]; 24 h post-application of TPA): 24%
- suppression of TPA-induced ear swelling (FIG. 3) ([3]; vs PBS at 6 h and 24 h, vs mUTβ4 at 6 h): significantly more than PBS
- % Closure (+/− SE %) ([4]; nine hours): 27.2 ± 1.6%
- % Closure (+/− SE %) ([4]; nine hours, listed as mLβ): 27.2%
- more closure than mTβ4-so ([4]; twenty four hours): 15.3%
- % Closure (+/− SE %) ([4]; twenty-four hours): 37.3 ± 4.4%
- % Closure (+/− SE %) ([4]; twenty-four hours, listed as mLβ): 37.3%
- effect on migration of HUVEC to close an artificial wound (FIG. 5) ([4]; vs PBS at 9 h and 24 h, vs mUTβ4 at 24 h): significantly greater than PBS

Substance: N-MSDKPDMAEIEKFDKSKLKKTETQEINPL-PSIETIEQEKQAGES-C (SEQ ID NO:2) [mUTβ4]
- suppression of ACD ear swelling response relative to PBS ([1]; 72 h): 29%
- DNFB Ear Thickness (+/− SE) ([1]; Methionated Thymosin Experiment, forty-eight hours after challenge, listed as mTβ4-so): 18.39 ± 1.67 mm and 15.11 ± 0.37 mm
- DNFB Ear Thickness (+/− SE) ([1]; Methionated Thymosin Experiment, six hours after challenge, listed as mTβ4-so): 5.18 ± 0.78 mm and 4.39 ± 1.08 mm
- DNFB Ear Thickness (+/− SE) ([1]; Methionated Thymosin Experiment, twenty-four hours after challenge, listed as mTβ4-so): 20.25 ± 1.54 mm and 16.75 ± 0.48 mm
- suppression of footpad inflammation relative to PBS ([2]; 6 h): 29%
- suppression of footpad inflammation relative to PBS ([2]; 24 h): 45%
- suppression of footpad inflammation relative to PBS ([2]; 48 h): 38%
- Footpad Thickness (+/− SE) ([2]; Methionated Thymosin Experiment (B), forty-eight hours after λ-carrageenan, listed as mTβ4-so): 0.51 ± 0.02 mm and 0.55 ± 0.03 mm
- Footpad Thickness (+/− SE) ([2]; Methionated Thymosin Experiment (B), six hours after λ-carrageenan, listed as mTβ4-so): 0.36 ± 0.06 mm and 0.51 ± 0.05 mm
- Footpad Thickness (+/− SE) ([2]; Methionated Thymosin Experiment (B), twenty-four hours after λ-carrageenan, listed as mTβ4-so): 0.38 ± 0.01 mm and 0.28 ± 0.04 mm
- ear swelling [3]: 24.10±1.83
- suppression of inflammation relative to PBS-treated controls ([3]; 6 h post-application of TPA): 21%
- suppression of inflammation relative to PBS-treated controls ([3]; 24 h post-application of TPA): 13%
- TPA Ear Thickness (+/− SE) ([3]; six hours after TPA, listed as mTβ4): 24.10 ± 1.83 mm and 18.00 ± 1.58 mm
- TPA Ear Thickness (+/− SE) ([3]; twenty-four hours after TPA, listed as mTβ4-so): 19.00 ± 1.83 mm and 16.75 ± 1.79 mm
- % Closure (+/− SE %) ([4]; nine hours, listed as mTβ4): 24% and 24.0 ± 1.1%
- % Closure (+/− SE %) ([4]; twenty-four hours, listed as mTβ4): 21% and 21.0 ± 1.5%
- % Closure (+/− SE %) ([4]; twenty-four hours, listed as mTβ4-so): 21.0±1.5%
